Measured values as given in patent US8911935B2, “Mitochondria and human immunodefiency virus type 1” (New York University, priority 2011, dated 2014).
Entries after “also recorded” stand apart in the source; their conditions may differ.

How the values were obtained:
HIV-1 infected H9 cells = experiment: Cell death of HIV-1 infected H9 cells on pre-treatment with mitochondrial inhibitors; conditions: pre-treatment for 3 hours; CCCP 10 μM, antimycin A 2.4 μM, oligomycin 2.4 μM
Description: To verify that functional mitochondria are essential for cell-to-cell transmission of the virus, we pre-treated HIV-1 infected H9 cells with mitochondrial inhibitors including carbonyl cyanide m-chlorophenylhydrazone (CCCP, 10 μM), antimycin A (2.4 μM), and oligomycin (2.4 μM) for 3 hours [14].

HIV-1 core protein p24 = experiment: HIV-1 p24 assay (ELISA) in co-culture supernatants; type: cell-based, Human immunodeficiency virus type 1 (HIV-1); conditions: HIV-infected H9 cells treated with CCCP, co-cultured with MT2 target cells; supernatant
Description: (§1) HIV-1 infected H9 cells were fluorescently labeled with MitoTracker Red CMXRos to stain mitochondria red, and with Hoechst 33342 to stain DNA blue according to the manufacturer's protocols (Molecular Probes). Uninfected MT2 target cells were labeled green by the expression of green fluorescent protein (GFP-MT2). Cells were co-cultured and imaged on a glass bottom 96-well plate (MatTek, Ashland, Mass.) in RPMI 1640 medium containing 10% heat-inactivated fetal calf serum, 2 mM L-glutamine, 100 U/ml penicillin and 100 μg/ml streptomycin (complete medium). Labeled HIV-1 infected H9 cells were washed 3 times with complete medium to remove any residual free virus and free dye. Washed cells were suspended in complete medium at a density of 5×10^5 cells/ml. 100 μl of this cell suspension, containing 50,000 cells, were plated into each well. 100,000 GFP-MT2 target cells in 100 μl were then added to each well, to give a ratio of 1:2 of infected to uninfected target cells. […]
(§2) For quantitation of syncytial formation and HIV p24 production, data are means±standard deviations of four independent experiments. […]
(§3) To confirm that mitochondria from HIV infected cells serve as viral reservoirs and carry the virus into the uninfected target cells, the present inventors quantitated viral infection and replication in the co-cultures by syncytia formation and viral antigen p24 production. […]

HIV-1 [1] = experiment: Live-cell fluorescence imaging of cell-to-cell transmission of HIV-1, pre-treated H9 cells co-cultured with GFP-MT2 target cells; type: cell-based, Human immunodeficiency virus type 1 (HIV-1); conditions: FIG. 4C-3; for cell-to-cell spread of HIV-1, VS and syncytia formation: H9 cells pre-treated 3 hours (CCCP 10 μM, antimycin A 2.4 μM, oligomycin 2.4 μM), washed, co-cultured with GFP-MT2
Description: HIV-1 infected H9 cells were fluorescently labeled with MitoTracker Red CMXRos to stain mitochondria red, and with Hoechst 33342 to stain DNA blue according to the manufacturer's protocols (Molecular Probes). Uninfected MT2 target cells were labeled green by the expression of green fluorescent protein (GFP-MT2). Cells were co-cultured and imaged on a glass bottom 96-well plate (MatTek, Ashland, Mass.) in RPMI 1640 medium containing 10% heat-inactivated fetal calf serum, 2 mM L-glutamine, 100 U/ml penicillin and 100 μg/ml streptomycin (complete medium). Labeled HIV-1 infected H9 cells were washed 3 times with complete medium to remove any residual free virus and free dye. Washed cells were suspended in complete medium at a density of 5×10^5 cells/ml. 100 μl of this cell suspension, containing 50,000 cells, were plated into each well. 100,000 GFP-MT2 target cells in 100 μl were then added to each well, to give a ratio of 1:2 of infected to uninfected target cells.
Live-cell real-time images and time lapse movies were collected at 37° C., 5% CO2 using a microplate incubator, with precision temperature, humidity and CO2 controls, mounted on the microscope stage of a Leica inverted microscope equipped with an automatic power stage and an AF6000 camera. Phase contrast, blue (Hoechst 33342), green (GFP), and red (MitoTracker) channels were used for imaging. Images were collected at 0.5 min or 5 min intervals for 18-24 hours. Image analysis was performed using LCSAF software.

HIV-1 [2] = experiment: Syncytia formation assay in co-cultures of HIV-1 infected H9 cells with MT2 target cells; type: cell-based, Human immunodeficiency virus type 1 (HIV-1); conditions: Human immunodeficiency virus 1, H9, 3 h, HIV-infected H9 cells treated with 10 μM CCCP for 3 hours, then co-cultured with MT2 target cells
Description: as §1, with “cells/ml.” for “cells/ml. 100 μl of this cell suspension, containing 50,000 cells, were plated into each well. 100,000 GFP-MT2 target cells in 100 μl were then added to each well, to give a ratio of 1:2 of infected to uninfected target cells.”
Acute HIV infection of the target cells as a result of cell-to-cell transmission of the virus was measured by syncytia formation assay. Focal syncytium formation was scored under an inverted microscope.
as §2, §3

[3] = test system: human pancreatic cancer PANC-1 cells; conditions: glucose-deprived conditions; cited from earlier work

Compound	cell death (HIV-1 infected H9 cells)	reduction of p24 expression (HIV-1 core protein p24)	syncytia formation in fluorescent images (HIV-1 [1]; CCCP-treated HIV-1 infected H9 cells co-cultured with GFP-MT2 target cells)	cell-to-cell spread of HIV-1, VS and syncytia formation (HIV-1 [1])	inhibition at 10 µM (HIV-1 [2]) [%]	cytotoxicity [3]
N#CC(C#N)=NNc1cccc(Cl)c1 [CCCP, carbonyl cyanide m-chlorophenylhydrazone]	no cell death	about 95%	inhibits syncytia formation; also recorded: blocked syncytia formation	reduced cell-to-cell spread of HIV-1 and decreased VS and syncytia formation	~95	
CC[C@H]1/C=C/C=C/C[C@@H](C)[C@H](O)[C@@](C)(O)C(=O)[C@@H](C)[C@H](O)[C@@H](C)C(=O)[C@@H](C)[C@H](O)[C@@H](C)/C=C/C(=O)O[C@@H]2[C@H](C)[C@H](CC1)O[C@]1(CC[C@H](C)[C@H](C[C@@H](C)O)O1)[C@H]2C [oligomycin]	no cell death			reduced cell-to-cell spread of HIV-1 and decreased VS and syncytia formation		
antimycin A	no cell death			reduced cell-to-cell spread of HIV-1 and decreased VS and syncytia formation		
efrapeptin F						preferential cytotoxicity
